# Reference: US11466047B2, “Cyclic di-nucleotide compounds as sting agonists” (Merck Sharp & Dohme Corp., priority 2017, dated 2022)
# Where two headings read alike, the source gives them in different places.
# Tests used:
# full-length HAQ STING = full-length HAQ STING (Homo sapiens (Human), UniProt Q86WV6, G230A/H232R/R293Q/R71H); assay: 3H-cGAMP filtration binding assay (HAQ STING); conditions: competition with tritiated cGAMP ligand, HAQ STING membrane
# From the text: The ability of compounds to bind STING is quantified by the ability to compete with tritiated cGAMP ligand for human STING receptor membrane using a radioactive filter-binding assay. The binding assay employs STING receptor obtained from Hi-Five cell membranes overexpressing full-length HAQ STING prepared in-house and tritiated cGAMP ligand also purified in-house.
# (§1) The ability of compounds to bind STING is quantified by their ability to compete with tritiated cGAMP ligand for human STING receptor membrane using a radioactive filter-binding assay. The binding assay employs STING receptor obtained from Trichoplusia ni cell membranes (T.ni; Expression Systems, cat #94-002F, www.expressionsystems.com) overexpressing full-length HAQ STING and tritiated cGAMP ligand.
# The basic HAQ STING filtration assay protocol is as follows:
# The compounds were serially titrated by the Hamilton STARPlus CORE in a 96-well plate (Greiner, #651201) using a 1:3 ten-point dose response format. After compound preparation, a 2.2 ug/ml working concentration of STING membrane (SEQ. ID. No. 1) was prepared by diluting concentrated membrane into assay buffer (lx PBS; Invitrogen #SH30028.02) and douncing 7× using a manual tissue homogenizer (Wheaton, #357546). 148 uL of prepared membrane was then manually added to each well of a 96-well deep-well polypropylene plate (Fisher Scientific, #12-566-121). Following membrane addition, 2 uL of either titrated test compound, DMSO control (Sigma #276855), or cold cGAMP control was added to the appropriate wells using a BIOMEK FX. Compound and membrane then preincubated for 60 min at RT to allow compound binding to equilibrate. Following equilibration, 8 nM of [^3H]c-GAMP ligand was prepared by diluting into assay buffer, and 50 uL of this working stock was then manually added to each well of the assay plate. Plates were then incubated at RT for 60 min, and the contents of each assay plate were then filtered through a 96-well GF/B filter plate (PerkinElmer, #6005250) using a TOMTEC MACH III Cell Harvester equipped with 20 mM HEPES buffer (Fisher Scientific, #BP299500). The filter plates were then dried at 55° C. for 30 min using a pressurized oven before 30 uL of ULTIMA GOLD F scintillate was added to each well. Tritium levels for each reaction well were then measured using a PerkinElmer TopCount plate reader.
# (§2) After normalization to controls, the percent activity for each compound concentration was calculated by measuring the amount of remaining radioactivity. The plot of percent activity versus the log of compound concentration was fit with a 4-parameter dose response equation to calculate EC50 values.
# full-length WT STING = full-length WT STING (Homo sapiens (Human), UniProt Q86WV6, H232R); assay: 3H-cGAMP filtration binding assay (WT STING); conditions: WT STING membrane
# Procedure: as §1, with “#94-002F,” for “#94-002F, www.expressionsystems.com)”, “WT” for “HAQ”
# The basic WT STING filtration assay protocol is as follows:
# 16 nM of [^3H] c-GAMP ligand was prepared by diluting into assay buffer, and 50 uL of this working stock was manually added to each well of the assay plate. After ligand addition, 2 uL of either titrated test compound, DMSO control (Sigma #276855), or cold cGAMP control was added to the appropriate wells using a BIOMEK FX. The serially titrated compound was prepared on a Hamilton STARPlus CORE in a 96-well plate (Greiner, #651201) using a 1:3 ten-point dose response format. Following compound addition, a 2.2 ug/ml working concentration of STING membrane (SEQ. ID. No. 3) was prepared by diluting concentrated membrane into assay buffer (1×PBS; Invitrogen #SH30028.02) and douncing 7× using a manual tissue homogenizer (Wheaton, #357546). 148 uL of this prepared membrane was then manually added to each well of a 96-well deep-well polypropylene plate (Fisher Scientific, #12-566-121). Compound, ligand, and membrane then incubated for 60 min at RT before the contents of each assay plate were filtered through a 96-well GF/B filter plate (PerkinElmer, #6005250) using a TOMTEC MACH III Cell Harvester equipped with 20 mM HEPES buffer (Fisher Scientific, #BP299500). The filter plates were then dried at 55° C. for 30 min using a pressurized VWR oven before 30 uL of ULTIMA GOLD F scintillate was added to each well. Tritium levels for each reaction well were then measured using a PerkinElmer TopCount plate reader.
# as §2
# THP1 cells = assay: IFN-β secretion in THP1 cell culture (5 h); format: cell-based, human; conditions: 30 μM compound, relative to 2′3′-cGAMP at 30 μM; for activation at 30 µM: Homo sapiens, THP-1, 5 h, read-out: % Effect at 30 μM relative to 2′3′-cGAMP
# Procedure: The ability of compounds to stimulate the secretion of interferon-beta from THP1 cells was measured using a human IFN-β AlphaLISA kit (Perkin Elmer, Cat. No. AL265F). The basic protocol is as follows:
# A Labcyte Echo 550 acoustic dispenser was used to transfer 120 nL of compound dissolved in DMSO into the wells of an empty, sterile 384-well microplate, (Corning, Cat. No. 3712). THP1 cells (American Type Culture Collection, Cat. No. TIB202) previously frozen in Recovery Medium (Life Technologies, Cat. No. 12648-010) were thawed and immediately diluted 10-fold into 37° C. assay medium (RPMI 1640+L-Glutamine & phenol red, Life Technologies, Cat. No. 11875-085; 0.5% heat inactivated fetal bovine serum, Sigma Aldrich, Cat. No. F4135; 1 mM Sodium Pyruvate, Life Technologies, Cat. No. 11360-070; lx non-essential amino acids; Life Technologies, Cat. No. 11140-050). The cell viability and count was ascertained using a Beckman Coulter V-Cell XR cell counter. The cell suspension was centrifuged at 200×g for 5 min at RT. Cells were resuspended to a density of 0.8×10^6/mL in 37° C. assay medium. Subsequent liquid transfers were performed using either a Matrix electronic multichannel pipette or an Agilent Bravo Automated Liquid Handling Platform.
# The assay was started by dispensing 40 μL of the previously prepared cell suspension into the wells of the plate containing compounds. After 5 h incubation at 37° C., 5% CO2 in a humidified atmosphere, the plate of cells and compounds was centrifuged at 200×g for 5 min at RT. From each well, 5 μL of supernatant was transferred into corresponding wells of a white 384-well plate (Perkin Elmer, Cat. No. 6005620). To these supernatant-containing wells was added 10 μL of 5× Anti-Analyte Acceptor beads (50 μg/mL of AlphaLISA HiBlock Buffer) and incubated for 30 min at RT while shaking on an orbital plate shaker. To each well was added 10 μL of 5× Biotinylated Antibody Anti-analyte (5 nM in AlphaLISA HiBlock Buffer) and incubated on an orbital plate shaker for 60 min at RT or overnight at 4° C. To each well was added 25 μL of 2×SA-Donor beads (80 μg/mL in AlphaLISA HiBlock Buffer) and incubated for 30-45 min at RT in the dark while shaking on an orbital plate shaker. The plate was then read on a Perkin Elmer Envision (λex=680 nm, λem=570 nm). The percent effect of the AlphaLISA signal at each compound concentration was calculated based on 30 uM cGAMP positive controls and 0.3% DMSO negative controls. The plot of percent effect versus the log of compound concentration was fit with a 4-parameter concentration response equation to calculate EC50 values. The test compounds were tested at concentrations 30000, 10000, 3333, 1111, 370.4, 123.4, 41.2, 13.7, 4.6, and 1.5 nM with 0.3% residual DMSO. The control compound, cGAMP was tested at concentrations 100000, 33333, 11111, 3704, 1235, 412, 137, 46, and 15 nM with 0.3% residual DMSO.
# Compounds of the disclosure were evaluated for IFN-β secretion in THP1 cell culture as described above. The following table tabulates the biological data for these compounds as percent activation relative to 2′3′-cGAMP at the 30 μM concentration.
# [1] = competition with tritiated cGAMP ligand, read-out: EC50
# [2] = EC50, competition with tritiated cGAMP ligand
# Chain of full-length HAQ STING (Q86WV6 whole entry, looked up, stated change not applied): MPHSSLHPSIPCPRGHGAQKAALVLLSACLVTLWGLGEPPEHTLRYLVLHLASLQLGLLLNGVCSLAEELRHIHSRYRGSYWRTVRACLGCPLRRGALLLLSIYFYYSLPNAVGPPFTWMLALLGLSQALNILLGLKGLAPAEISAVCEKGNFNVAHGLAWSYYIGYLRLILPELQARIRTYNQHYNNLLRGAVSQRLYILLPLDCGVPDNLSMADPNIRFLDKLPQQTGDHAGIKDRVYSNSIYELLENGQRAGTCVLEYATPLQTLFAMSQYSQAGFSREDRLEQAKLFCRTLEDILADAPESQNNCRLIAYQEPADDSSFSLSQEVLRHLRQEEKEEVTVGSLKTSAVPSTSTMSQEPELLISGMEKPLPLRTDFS
# Chain of full-length WT STING (Q86WV6 whole entry, looked up, stated change not applied): as above
Structure (SMILES),EC50 (full-length HAQ STING),EC50 (full-length WT STING; [1]),activation at 30 µM (THP1 cells),% Effect at 30 μM relative to 2′3′-cGAMP (THP1 cells),EC50 (full-length WT STING; [2])
"Nc1nc2c(ncn2[C@@H]2S[C@@H]3COP(=S)(S)O[C@H]4[C@H](F)[C@H](n5cnc6c(N)ncnc65)O[C@@H]4COP(O)(=S)O[C@@H]2[C@@H]3O)c(=O)[nH]1 (stereo partly drawn) [Example 16, 2-amino-9-[(5R,7R,8R,12aR,14R,15S,15aR,16S)-14-(6-amino-9H-purin-9-yl)-15-fluoro-10,16-dihydroxy-2-sulfanyl-2,10-disulfidooctahydro-12H-5,8-methanofuro[3,2-l][1,3,9,11,6,2,10]tetraoxathiadiphosphacyclotetradecin-7-yl]-1,9-dihydro-6H-purin-6-one]",5 nM,18 nM,107%,–,–
"Nc1nc2c(ncn2[C@@H]2O[C@@H]3COP(=S)(S)O[C@H]4C[C@H](c5cnc6c(N)ncnn56)O[C@@H]4COP(O)(=S)O[C@@H]2C3)c(=O)[nH]1 (single isomer, unassigned) [Example 7]",< 1 nM,< 1 nM,–,173%,–
"Nc1nc2c(ncn2[C@@H]2O[C@@H]3COP(=S)(S)O[C@H]4[C@H](F)[C@H](n5cnc6c(N)ncnc65)O[C@@H]4COP(O)(=S)O[C@@H]2[C@@H]3F)c(=O)[nH]1 (single isomer, unassigned) [Example 2]",2 nM,–,–,175%,9 nM
"Nc1nc2c(ncn2[C@@H]2O[C@@H]3COP(=S)(S)O[C@H]4[C@H]5OC[C@]4(COP(=O)(O)O[C@@H]2[C@H]3F)O[C@H]5n2cnc3c(N)ncnc32)c(=O)[nH]1 (stereo partly drawn) [Example 17, 2-amino-9-[(5R,7R,8S,12aR,14R,15R,15aS,18S)-14-(6-amino-9H-purin-9-yl)-18-fluoro-10-hydroxy-10-oxido-2-sulfanyl-2-sulfidohexahydro-14H-15,12a-(epoxymethano)-5,8-methanofuro[3,2-l][1,3,6,9,11,2,10]pentaoxadiphosphacyclotetradecin-7(12H)-yl]-1,9-dihydro-6H-purin-6-one]",15 nM,–,145%,–,–
"Nc1nc2c(ncn2[C@@H]2O[C@@H]3COP(=S)(S)O[C@H]4C[C@H](n5cnc6c(=O)[nH]cnc65)O[C@@H]4COP(O)(=S)O[C@@H]2C3)c(=O)[nH]1 (single isomer, unassigned) [Example 24]",–,19 nM,–,168%,–
"Nc1nc2c(ncn2[C@@H]2O[C@@H]3COP(=O)(O)O[C@H]4[C@H](F)[C@H](n5cnc6c(N)ncnc65)O[C@@H]4COP(=S)(S)O[C@@H]2[C@@H]3F)c(=O)[nH]1 (stereo partly drawn) [Example 22, 2-amino-9-[(5R,7R,8S,12aR,14R,15S,15aR,16R)-14-(6-amino-9H-purin-9-yl)-15,16-difluoro-2-hydroxy-2-oxido-10-sulfanyl-10-sulfidooctahydro-12H-5,8-methanofuro[3,2-l][1,3,6,9,11,2,10]pentaoxadiphosphacyclotetradecin-7-yl]-1,9-dihydro-6H-purin-6-one]",–,–,117%,–,517 nM
"Nc1nc2c(ncn2[C@@H]2O[C@@H]3COP(O)(=S)O[C@H]4[C@H]5OC[C@]4(COP(=S)(S)O[C@@H]2[C@H]3F)O[C@H]5n2cnc3c(N)ncnc32)c(=O)[nH]1 (single isomer, unassigned) [Example 15]",–,79 nM,357%,–,–
"Nc1nc2c(ncn2[C@@H]2O[C@@H]3COP(O)(=S)O[C@H]4C[C@H](n5ccc6c(N)ncnc65)O[C@@H]4COP(=S)(S)O[C@@H]2C3)c(=O)[nH]1 (single isomer, unassigned) [Example 14]",–,244 nM,422%,–,–
"Nc1nc2c(ncn2[C@@H]2O[C@@H]3COP(O)(=S)O[C@H]4[C@H](F)[C@H](n5cnc6c(N)ncnc65)O[C@@H]4COP(=S)(S)O[C@@H]2[C@@H]3F)c(=O)[nH]1 (single isomer, unassigned) [Example 13]",–,223 nM,–,95%,–
"Nc1nc2c(ncn2[C@@H]2O[C@@H]3COP(O)(=S)O[C@H]4C[C@H](n5cnc6c(N)ncnc65)O[C@@H]4COP(=S)(S)O[C@@H]2C3)c(=O)[nH]1 (single isomer, unassigned) [Example 11]",–,–,–,51%,34 nM
"Nc1nc2c(ncn2[C@@H]2O[C@@H]3COP(=S)(S)O[C@H]4C[C@H](n5cnc6c(N)ncnc65)O[C@@H]4COP(O)(=S)O[C@@H]2C3)c(=O)[nH]1 (single isomer, unassigned) [Example 4]",–,< 1 nM,–,146%,–
